Measured values published in ChEMBL document CHEMBL1201862, “PubChem BioAssay data set” (2004).
Values belong to the molecule of their own block, whether it stands above or below them. Active and inactive are the calls of the source.

Experiments:
[1] = cytotoxicity in HEK-293T cells, dose response, cytotoxicity control for TCR NF-kB inhibitor project, luminescence, T-cell screen hits (AID 489026); assay type: functional, cell-based;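 further: cells exposed to compound about 14 hours before the viability readout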
[2] = Shn3 3'UTR reporter inhibitors, dose response, cell-based, Clone20 osteoblasts, firefly luciferase, cherry-picked (AID 624132); assay type: functional;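 further: firefly luciferase luminescence from reporter carrying the Shn3 3'UTR in osteoblasts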
[3] = HepG2 cell cytotoxicity, dose response, cytotoxicity control for Shn3 inhibitor project, CellTiter-Glo, cherry-picked (AID 624134); assay type: functional, cell-based
[4] = control 3'UTR Renilla luciferase suppression, dose response, counter-screen for Shn3 inhibitor project, cell-based, Clone20-Shn3RL, cherry-picked (AID 624133); assay type: functional
Galanin receptor type 3 = target: T1, Galanin receptor type 3 (Homo sapiens, UniProt O60755); assay: Fluorescence-based cell-based primary high throughput dose response assay to identify antagonists of the Galanin Receptor 3 (GalR3).; assay type: functional
T1 sequence (O60755 whole entry): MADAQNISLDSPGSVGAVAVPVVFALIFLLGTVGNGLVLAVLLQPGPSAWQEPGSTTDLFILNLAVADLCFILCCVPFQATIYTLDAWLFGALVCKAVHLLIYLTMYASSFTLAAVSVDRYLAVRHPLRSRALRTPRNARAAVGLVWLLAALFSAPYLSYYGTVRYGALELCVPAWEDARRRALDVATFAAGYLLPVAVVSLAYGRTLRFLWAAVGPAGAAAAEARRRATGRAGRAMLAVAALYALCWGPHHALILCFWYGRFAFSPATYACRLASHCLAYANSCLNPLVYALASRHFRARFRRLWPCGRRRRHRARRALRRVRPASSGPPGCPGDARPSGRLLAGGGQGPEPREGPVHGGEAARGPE

cells = assay type: functional, cell-based; details: HEK-CNG
[5] = target: T2, COUP transcription factor 2 (Homo sapiens, UniProt P24468); assay: Luminescence-based cell-based high throughput dose response assay to identify inhibitors of COUP-TFII (NR2F2).; assay type: functional;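 further: HEK293 cells transiently cotransfected with COUP-TFII expression vector and reporter; luciferase reporter luminescence driven by COUP-TFII from the pX2-168 reporter plasmid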
T2 sequence (P24468 whole entry): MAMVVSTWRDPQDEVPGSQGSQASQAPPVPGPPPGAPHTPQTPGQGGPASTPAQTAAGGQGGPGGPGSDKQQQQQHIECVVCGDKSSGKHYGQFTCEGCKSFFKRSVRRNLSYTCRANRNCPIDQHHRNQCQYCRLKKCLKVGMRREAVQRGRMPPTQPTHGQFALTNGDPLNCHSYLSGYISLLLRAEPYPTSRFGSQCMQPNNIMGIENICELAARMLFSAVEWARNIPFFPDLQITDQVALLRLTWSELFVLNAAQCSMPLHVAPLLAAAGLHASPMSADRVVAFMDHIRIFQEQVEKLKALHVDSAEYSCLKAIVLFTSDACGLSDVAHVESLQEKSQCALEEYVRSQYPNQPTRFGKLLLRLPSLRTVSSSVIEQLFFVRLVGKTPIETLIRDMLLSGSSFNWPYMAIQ

BJ [6] = assay: cytotoxicity toward BJ-TERT fibroblasts, dose response, cell-based, RAS-independent, luminescence (AID 1933); assay type: functional; details: Homo sapiens
BJ [7] = assay: cells; assay type: functional, cell-based; details: Homo sapiens
[8] = inhibitors of intracellular T. cruzi replication, confirmation, NIH3T3 host cells, beta-gal luminescence (AID 2044); assay type: functional, cell-based;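 further: intracellular parasites grown in NIH/3T3 mouse fibroblasts as host cells; luminescent beta-galactosidase reporter signal from transgenic T. cruzi replicating inside host cells; inhibitors lower the luminescence signal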
[9] = cytotoxicity toward NIH3T3 fibroblasts, dose response, counter-screen, cell-based, ATP luminescence, mouse fibroblasts (AID 2010); assay type: functional;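 further: cells exposed to compound for about 90 hours before reading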
BJ [10] = assay: cytotoxicity toward BJ-TERT-LT-ST fibroblasts, dose response, cell-based, RAS-independent, luminescence (AID 1935); assay type: functional; details: Homo sapiens;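 further: BJ fibroblasts immortalized with TERT plus LT and ST oncogenes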
[11] = cytotoxicity toward DRD oncogenic fibroblasts, dose response, cell-based, non-viral oncogenic, luminescence (AID 1934); assay type: functional; details: Homo sapiens
INS1 = assay: beta cell apoptosis inhibitors, cytokine rescue, dose response, luminescence, retest (AID 449756); assay type: functional, cell-based; details: Rattus norvegicus;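 further: cell death triggered by IL-1 beta plus TNF-alpha plus IFN-gamma mixture; protective hits raise ATP signal compared with cytokine alone wells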
Paired box protein Pax-8 = Paired box protein Pax-8 (Homo sapiens, UniProt Q06710); assay: inhibitors of PAX8-driven TPO luciferase reporter, dose response, RMG-I cells, cherry-pick (AID 687027); assay type: functional, cell-based;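 further: luciferase reporter driven by Pax8 target thyroperoxidase promoter measured by SteadyGlo luminescence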
[12] = LGR2 antagonists, dose response, cell-based, HEK293, CRE-luciferase reporter, cherry pick, set 2 (AID 743343); assay type: functional;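 further: transfected cells were stimulated with diluted bursicon conditioned medium after compound addition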
[13] = MC4R antagonists, dose response, counter-screen for LGR2 antagonist project, cell-based, plate reader, cherry pick (AID 743444); assay type: functional;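 further: transfected HEK 293 cells stimulated with alpha-MSH peptide; potency of inhibitors of the alpha-MSH evoked signal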
[14] = target: T3, Heat shock factor protein 1 (Mus musculus, UniProt P38532); assay: HSF1 potentiators in luciferase reporter cells, confirmation, cell-based, NIH3T3, luminescence, dose retest (AID 435004); assay type: functional;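 further: stress induced by proteasome inhibitor MG132 added 30 min after compound; luciferase reporter driven by HSF1 response element in NIH3T3 cells; actives raise luminescence as potentiators of the MG132 stress response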
T3 sequence (P38532 whole entry): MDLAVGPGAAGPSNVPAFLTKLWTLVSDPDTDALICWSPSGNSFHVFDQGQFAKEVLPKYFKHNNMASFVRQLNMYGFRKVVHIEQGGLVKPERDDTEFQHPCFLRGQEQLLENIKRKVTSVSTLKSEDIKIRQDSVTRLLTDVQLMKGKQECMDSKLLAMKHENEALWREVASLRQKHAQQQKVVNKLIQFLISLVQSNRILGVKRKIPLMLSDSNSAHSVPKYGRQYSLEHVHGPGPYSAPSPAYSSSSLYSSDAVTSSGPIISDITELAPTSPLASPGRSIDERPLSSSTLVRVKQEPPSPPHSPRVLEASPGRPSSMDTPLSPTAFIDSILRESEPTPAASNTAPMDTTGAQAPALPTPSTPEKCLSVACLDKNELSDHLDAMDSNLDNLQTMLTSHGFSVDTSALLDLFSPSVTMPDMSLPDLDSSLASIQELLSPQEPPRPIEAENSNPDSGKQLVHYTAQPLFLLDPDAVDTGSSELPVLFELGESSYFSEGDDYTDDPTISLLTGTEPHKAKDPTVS

[15] = target: SWI/SNF-related matrix-associated actin-dependent regulator of chromatin subfamily A member 2 (Homo sapiens, UniProt P51531); assay: Luminescence-based cell-based high throughput dose response assay to identify activators of the function of SWI/SNF related, matrix associated, actin dependent regulator of chromatin, subfamily a, member 2 (SMARCA2, BRM).; assay type: functional
[16] = Counterscreen for activators of the function of SWI/SNF related, matrix associated, actin dependent regulator of chromatin, subfamily a, member 2 (SMARCA2, BRM): Luminescence-based cell-based high throughput dose response assay to identify non-selective compounds using the VP16 reporter assay.; assay type: functional
[17] = target: Ras and Rab interactor 1/Tyrosine-protein kinase ABL1 (Homo sapiens, UniProt P00519+Q13671); assay type: functional;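 further: biochemical TR-FRET dose-response test measuring inhibition of binding between Rin1 and Abl proteins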
[18] = non-specific cell cytotoxicity, dose response, cytotoxicity control for PAX8 inhibitor project, plate reader, dry powder samples (AID 743021); assay type: functional, cell-based
[19] = A549 cell cytotoxicity, dose response, cytotoxicity control, plate reader, cherry-pick, antagonist series (AID 743412); assay type: functional, cell-based
[20] = HepG2 cell cytotoxicity, dose response, cytotoxicity control, plate reader, cherry-pick, antagonist series (AID 743416); assay type: functional, cell-based
[21] = HEK293 cell cytotoxicity, dose response, cytotoxicity control, plate reader, cherry-picked samples (AID 743446); assay type: functional, cell-based
HEK293 = assay: HEK293T cell cytotoxicity, dose response, cytotoxicity control, ATP luminescence, cherry-pick samples (AID 687005); assay type: functional, cell-based; details: Homo sapiens;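 further: cells exposed to compound for 48 hours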
[22] = HEK293 Cytotoxicity Assay Measured in Cell-Based System Using Plate Reader - 7071-01_Inhibitor_Dose_CherryPick_Activity_Set2.; assay type: functional
[23] = target: T4, RNA-editing ligase 1, mitochondrial (Trypanosoma brucei brucei, UniProt P86926); assay: TbREL1 ligase inhibitors, dose response, biochemical, fluorescence, Trypanosoma brucei (AID 1117295); assay type: functional
T4 sequence (P86926 whole entry): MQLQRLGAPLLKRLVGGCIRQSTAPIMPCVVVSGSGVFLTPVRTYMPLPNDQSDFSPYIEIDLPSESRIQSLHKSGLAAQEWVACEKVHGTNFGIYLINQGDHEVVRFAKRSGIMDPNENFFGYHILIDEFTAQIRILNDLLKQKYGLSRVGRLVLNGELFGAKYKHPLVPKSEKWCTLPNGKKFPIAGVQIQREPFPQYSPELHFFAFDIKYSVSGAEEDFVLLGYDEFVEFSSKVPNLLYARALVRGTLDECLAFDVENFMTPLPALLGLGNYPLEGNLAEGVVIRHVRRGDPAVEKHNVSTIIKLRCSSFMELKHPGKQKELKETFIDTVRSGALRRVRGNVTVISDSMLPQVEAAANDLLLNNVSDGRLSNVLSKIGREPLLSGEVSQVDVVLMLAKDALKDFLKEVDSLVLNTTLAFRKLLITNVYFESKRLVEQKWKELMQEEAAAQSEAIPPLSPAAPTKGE

Paired box protein Pax-8, sequence (Q06710 whole entry): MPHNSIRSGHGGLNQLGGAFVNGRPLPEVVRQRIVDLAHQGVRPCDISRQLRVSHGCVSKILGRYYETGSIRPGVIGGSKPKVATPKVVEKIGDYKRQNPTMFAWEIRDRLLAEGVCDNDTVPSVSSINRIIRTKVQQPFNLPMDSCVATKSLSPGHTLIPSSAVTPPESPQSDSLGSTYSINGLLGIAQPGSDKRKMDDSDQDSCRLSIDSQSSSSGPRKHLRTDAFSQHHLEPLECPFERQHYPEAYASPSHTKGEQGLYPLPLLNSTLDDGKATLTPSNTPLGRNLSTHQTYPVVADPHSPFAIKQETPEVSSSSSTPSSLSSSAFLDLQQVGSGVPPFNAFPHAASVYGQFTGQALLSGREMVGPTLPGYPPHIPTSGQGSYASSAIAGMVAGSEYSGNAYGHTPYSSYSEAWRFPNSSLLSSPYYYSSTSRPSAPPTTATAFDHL
SWI/SNF-related matrix-associated actin-dependent regulator of chromatin subfamily A member 2, sequence (P51531 whole entry): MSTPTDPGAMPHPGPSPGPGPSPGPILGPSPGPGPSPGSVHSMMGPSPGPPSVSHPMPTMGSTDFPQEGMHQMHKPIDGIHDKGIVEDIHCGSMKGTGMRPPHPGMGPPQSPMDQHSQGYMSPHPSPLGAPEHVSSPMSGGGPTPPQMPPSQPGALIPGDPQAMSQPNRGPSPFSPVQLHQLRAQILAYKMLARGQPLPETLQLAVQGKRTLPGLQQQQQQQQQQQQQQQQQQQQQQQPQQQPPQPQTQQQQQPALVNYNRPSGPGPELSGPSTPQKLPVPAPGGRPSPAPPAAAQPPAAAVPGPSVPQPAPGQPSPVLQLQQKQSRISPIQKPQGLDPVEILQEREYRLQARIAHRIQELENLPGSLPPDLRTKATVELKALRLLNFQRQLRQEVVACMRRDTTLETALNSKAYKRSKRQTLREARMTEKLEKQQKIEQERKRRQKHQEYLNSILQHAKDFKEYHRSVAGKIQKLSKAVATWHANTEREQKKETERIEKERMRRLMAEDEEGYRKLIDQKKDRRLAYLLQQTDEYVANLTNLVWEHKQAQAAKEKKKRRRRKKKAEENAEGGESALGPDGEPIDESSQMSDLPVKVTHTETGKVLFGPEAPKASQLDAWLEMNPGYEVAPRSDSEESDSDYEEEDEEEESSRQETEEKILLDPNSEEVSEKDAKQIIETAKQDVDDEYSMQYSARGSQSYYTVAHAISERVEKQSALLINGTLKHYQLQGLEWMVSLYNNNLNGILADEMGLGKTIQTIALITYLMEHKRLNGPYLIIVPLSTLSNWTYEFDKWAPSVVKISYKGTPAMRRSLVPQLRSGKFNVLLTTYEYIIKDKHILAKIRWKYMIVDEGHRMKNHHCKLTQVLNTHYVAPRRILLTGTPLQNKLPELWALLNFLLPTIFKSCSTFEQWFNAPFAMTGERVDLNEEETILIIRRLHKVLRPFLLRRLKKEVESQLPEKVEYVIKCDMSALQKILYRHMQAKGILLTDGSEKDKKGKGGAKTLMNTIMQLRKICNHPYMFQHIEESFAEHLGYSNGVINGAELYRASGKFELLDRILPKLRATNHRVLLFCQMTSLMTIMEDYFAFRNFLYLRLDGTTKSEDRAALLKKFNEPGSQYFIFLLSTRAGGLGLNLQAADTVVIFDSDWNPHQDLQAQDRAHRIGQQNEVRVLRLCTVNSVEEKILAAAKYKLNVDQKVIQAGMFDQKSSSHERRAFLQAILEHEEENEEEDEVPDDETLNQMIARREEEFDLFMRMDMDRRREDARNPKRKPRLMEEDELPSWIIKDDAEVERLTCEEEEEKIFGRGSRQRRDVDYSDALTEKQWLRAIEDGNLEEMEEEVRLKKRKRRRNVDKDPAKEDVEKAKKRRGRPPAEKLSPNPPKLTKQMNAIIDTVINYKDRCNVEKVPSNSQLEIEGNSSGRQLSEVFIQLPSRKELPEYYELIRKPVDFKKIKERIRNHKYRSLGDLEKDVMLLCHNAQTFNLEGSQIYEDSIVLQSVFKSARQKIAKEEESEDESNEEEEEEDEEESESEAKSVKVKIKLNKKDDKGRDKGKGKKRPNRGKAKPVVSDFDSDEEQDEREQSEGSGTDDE
Ras and Rab interactor 1/Tyrosine-protein kinase ABL1, sequence (P00519 whole entry): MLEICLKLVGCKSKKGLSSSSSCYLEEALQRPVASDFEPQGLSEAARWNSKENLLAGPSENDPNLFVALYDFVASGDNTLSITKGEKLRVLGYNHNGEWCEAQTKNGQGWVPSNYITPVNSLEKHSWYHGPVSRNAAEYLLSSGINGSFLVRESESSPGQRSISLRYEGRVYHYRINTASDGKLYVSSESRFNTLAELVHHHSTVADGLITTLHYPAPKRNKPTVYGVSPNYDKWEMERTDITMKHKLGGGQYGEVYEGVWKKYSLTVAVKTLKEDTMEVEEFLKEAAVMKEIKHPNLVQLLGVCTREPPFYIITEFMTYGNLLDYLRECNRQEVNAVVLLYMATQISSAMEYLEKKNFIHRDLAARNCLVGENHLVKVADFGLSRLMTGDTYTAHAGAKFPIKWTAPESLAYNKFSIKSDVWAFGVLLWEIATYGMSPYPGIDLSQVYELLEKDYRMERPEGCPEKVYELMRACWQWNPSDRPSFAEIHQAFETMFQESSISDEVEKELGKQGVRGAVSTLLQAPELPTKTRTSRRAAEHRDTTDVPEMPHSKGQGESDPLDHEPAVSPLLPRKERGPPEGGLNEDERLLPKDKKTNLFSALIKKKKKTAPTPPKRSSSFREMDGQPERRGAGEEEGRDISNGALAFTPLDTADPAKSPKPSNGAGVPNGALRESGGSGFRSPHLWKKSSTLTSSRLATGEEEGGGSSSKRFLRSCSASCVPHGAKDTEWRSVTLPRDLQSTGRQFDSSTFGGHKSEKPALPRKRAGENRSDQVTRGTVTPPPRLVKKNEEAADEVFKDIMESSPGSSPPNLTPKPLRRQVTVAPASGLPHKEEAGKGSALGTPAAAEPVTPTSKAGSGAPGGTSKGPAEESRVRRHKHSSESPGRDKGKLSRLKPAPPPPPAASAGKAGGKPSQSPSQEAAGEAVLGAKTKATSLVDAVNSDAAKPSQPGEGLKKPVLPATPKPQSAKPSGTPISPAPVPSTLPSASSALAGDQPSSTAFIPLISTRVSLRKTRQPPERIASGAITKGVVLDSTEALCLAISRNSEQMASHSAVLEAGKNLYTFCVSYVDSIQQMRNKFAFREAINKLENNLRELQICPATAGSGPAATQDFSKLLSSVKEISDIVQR
Ras and Rab interactor 1/Tyrosine-protein kinase ABL1, sequence (Q13671 whole entry): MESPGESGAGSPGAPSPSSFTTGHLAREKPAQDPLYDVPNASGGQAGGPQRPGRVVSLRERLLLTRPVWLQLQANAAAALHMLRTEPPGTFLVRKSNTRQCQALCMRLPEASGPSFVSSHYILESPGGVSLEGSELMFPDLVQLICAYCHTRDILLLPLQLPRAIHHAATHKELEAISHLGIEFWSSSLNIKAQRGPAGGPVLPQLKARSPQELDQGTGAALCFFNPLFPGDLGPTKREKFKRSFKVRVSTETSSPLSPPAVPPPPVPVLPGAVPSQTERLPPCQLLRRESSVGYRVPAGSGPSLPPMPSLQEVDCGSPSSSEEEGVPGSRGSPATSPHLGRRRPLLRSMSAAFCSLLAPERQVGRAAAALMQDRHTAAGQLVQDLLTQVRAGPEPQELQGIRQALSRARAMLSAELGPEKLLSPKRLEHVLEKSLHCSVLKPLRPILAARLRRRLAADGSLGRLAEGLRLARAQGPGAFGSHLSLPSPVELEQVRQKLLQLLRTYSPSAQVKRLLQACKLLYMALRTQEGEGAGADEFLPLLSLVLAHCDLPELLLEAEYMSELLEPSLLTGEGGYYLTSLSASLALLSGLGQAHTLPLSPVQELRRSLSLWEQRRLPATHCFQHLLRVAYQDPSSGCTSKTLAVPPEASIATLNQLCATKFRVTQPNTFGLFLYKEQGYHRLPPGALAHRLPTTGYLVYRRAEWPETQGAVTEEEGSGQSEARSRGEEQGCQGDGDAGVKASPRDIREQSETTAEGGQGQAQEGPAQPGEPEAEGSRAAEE

Structure (SMILES): Cc1oc(-c2ccc(Cl)cc2)nc1C[S+]([O-])CC(=O)NCCCN1CCN(Cc2ccccc2)CC1 (centres undefined)
IC50 [1]: > 80 µM (inactive)
AC50 [2]: 2.52 µM (active)
AC50 [3]: 1.69 µM (active)
AC50 [4]: 4.29 µM (active)
IC50 (Galanin receptor type 3): 2.03 µM (active)
EC50 (cells): > 29.9 µM (inactive)
IC50 [5]: 4.34 µM (active)

Structure (SMILES): O=C(NC(Nc1nc2ccc([N+](=O)[O-])cc2s1)(C(F)(F)F)C(F)(F)F)c1cccnc1
EC50 (BJ [6]): 8.85 µM (inconclusive)
EC50 (BJ [7]): 4.98 µM (active)
EC50 [8]: 1.38 µM (active)
EC50 [9]: < 6 µM (inconclusive)
EC50 (BJ [10]): 11.4 µM (active)
EC50 [11]: 10.4 µM (active)
AC50 (INS1): 2.6 µM (active)
IC50 (Galanin receptor type 3): > 1.11 µM (active)
EC50 (cells): > 29.9 µM (inactive)
AC50 (Paired box protein Pax-8): 1.86 µM (active)
IC50 [5]: 8.8 µM (active)

Structure (SMILES): O=C(Nc1ccc(N2CCN(C(=O)c3ccc(Cl)cc3)CC2)cc1)c1cc2ccccc2o1
AC50 [12]: 29.4 µM (active)
AC50 [13]: 28.6 µM (active)

Structure (SMILES): Cc1cc(C)nc(Sc2nc(Cl)nc(N(c3ccccc3)c3ccccc3)n2)n1
EC50 [14]: > 260 µM (inactive)
EC50 [15]: > 91.1 µM (inactive)
EC50 [16]: > 91.1 µM (inactive)

Structure (SMILES): OCC1OC(n2cnc3c(NCc4ccccc4O)ncnc32)C(O)C1O (centres undefined)
IC50 [17]: > 24.5 µM (inactive)
AC50 (Paired box protein Pax-8): 0.759 µM (active)
AC50 [18]: 4.79 µM (active)

Structure (SMILES): CCCCNc1c(-c2ccc(OC)c(SC3CCCCC3)c2)nc2ccc(C)cn12
AC50 [2]: 3.68 µM (active)
AC50 [3]: 45 µM (active)
AC50 [4]: 2.14 µM (active)
AC50 [19]: 22.1 µM (active)
AC50 [20]: 18.4 µM (active)
AC50 [12]: 7.85 µM (active)
AC50 [13]: 9.94 µM (active)
AC50 [21]: 15.5 µM (active)

Structure (SMILES): O=C(C[C@@H]1CC[C@@H]2[C@H](COC[C@@H](O)CN2C(=O)Nc2ccc(Cl)cc2)O1)NC1Cc2ccccc2C1
AC50 (HEK293): 25.2 µM (active)
AC50 [22]: 25.2 µM (active)

Structure (SMILES): C[C@@H]1CCCCO[C@H](CN(C)C(=O)Nc2ccc(F)cc2)[C@H](C)CN([C@@H](C)CO)C(=O)c2cc(NS(=O)(=O)c3ccc(Cl)cc3)ccc2O1
AC50 (HEK293): 21.9 µM (active)
AC50 [22]: 21.9 µM (active)

IC50 [23]: > 96.6 µM (inactive)
Structure (SMILES): COC(=O)C1=C(C)N(Cc2ccccc2C(F)(F)F)C(NCc2cccc(C(F)(F)F)c2)=NC1c1ccc(C(F)(F)F)cc1 (centres undefined)
